Data: US20130184272A1, “DIABETES THERAPEUTIC AGENT” (TAKEDA PHARMACEUTICAL COMPANY LIMITED, priority 2010, published 2013)

Legend:
C2C12 cells [1] = assay: Sugar uptake promoting activity in muscle cell (2DG uptake); type: cell-based, Mouse; conditions: for 2DG uptake (%): control group (DMSO) = 100%
Method: • (1) In the same manner as in Example 1, C2C12 cells were cultured in a growth medium to not less than 90% confluence. • (2) The medium was exchanged with a differentiation medium, and the cells were cultured until observation of myotube formation under a microscope. • (3) The compounds of Reference Example 1 and Reference Example 7 were added, and the cells were cultured overnight. • (4) The cells were washed with krebs-ringer HEPES phosphate buffer added with 1% bovine serum albumin, cultured for 30 min in this buffer, 2-deoxyglucose (2DG) (0.1 mM, 0.8 μCi/250 μL) was added and the cells were cultured at 37° C. for 75 min. • (5) The cells were washed 4 times with PBS, MicroScint-20 (125 μL/well, PerkinElmer) was added and the radioactivity was measured by a scintillation counter. DMSO (dimethyl sulfoxide) alone was added to the control group. The numerical values of 2DG uptake in Table 10 are relative values to the control group as 100%.
The data in Table 10 show mean±standard deviation at n=6 (n is the number of samples).

C2C12 cells [2] = assay: ATP content in muscle cell; type: cell-based, Mouse; conditions: for ATP content: two days, control group 100
Method: (§1) • (1) In the same manner as in Example 1, C2C12 cells were cultured in a growth medium to not less than 90% confluence. • (2) The medium was exchanged with a differentiation medium, and the cells were cultured until observation of myotube formation under a microscope. • (3) The compounds of Reference Example 1 and Reference Example 7 were added, and the cells were cultured for two days. • (4) ATP content was measured using Cell Titer-Glo™ Luminescence cell viable assay (Promega) and succinic acid dehydrogenase activity of mitochondria was measured using Cell Counting Kit-8 (Dojin). The data of Table 17 show mean±standard deviation at n=3-4 (n is the number of samples).

[3] = system: succinic acid dehydrogenase activity of mitochondria; assay: Succinic acid dehydrogenase activity in muscle cell; type: cell-based, Mouse; conditions: for succinic acid dehydrogenase activity: two days, control group 100
Method: as §1

[4] = system: Male C57BL/6J mice on a high-fat diet; assay: Antiobesity, dyslipidemia and diabetes improving effect in mouse fed with high-fat diet; type: in vivo; design: plasma leptin (mg/dL): unit not given here; conditions: for epididymal fat mass / gastrocnemius muscle weight (g/100 g body weight) / hepatocyte weight / mesenteric fat mass: Day 38
Method: Male C57BL/6J mice (CLEA Japan, Inc.) were bred from 5-week-old on a high-fat diet (D12451, research diet) while allowing free ingestion of both feed and water to prepare obesity mice. The mice were bred for acclimation for 2 weeks from 21-week-old. The body weight and plasma markers were measured when 23-week-old, the mice were divided into 6 groups (6 per group) such that the values thereof were uniform, and Reference Example 1 (0.01-0.1 mg/kg) or Reference Example 7 (1-3 mg/kg) was orally administered for 5 weeks. After 14 and 28 days, plasma levels of total cholesterol, neutral lipid, glucose, insulin, leptin, adiponectin and glycated hemoglobin were measured. On the last day, the mice were autopsied, and weights of mesenteric fat, epididymal fat, liver and gastrocnemius muscle were measured. The data of Table 18 show mean±standard deviation at n=5-6 (n is the number of samples).

## Cn1ncc2c1-c1c(Oc3cccnc3)sc(C(N)=O)c1CC2 [Ref. Ex. 7, 1-methyl-8-(pyridin-3-yloxy)-4,5-dihydro-1H-thieno[3,4-g]indazole-6-carboxamide]
C2C12 cells [1]
  sugar uptake of C2C12 cell differentiated into muscle cell (in words): promoted
C2C12 cells [1]; compound 0.1 nM overnight
  2DG uptake (%): 69%
C2C12 cells [1]; compound 1 nM overnight
  2DG uptake (%): 100%
C2C12 cells [1]; compound 10 nM overnight
  2DG uptake (%): 137%
C2C12 cells [1]; compound 100 nM overnight
  2DG uptake (%): 181%
C2C12 cells [2]
  ATP content of muscle cells (in words): did not decrease
C2C12 cells [2]; compound 1 nM
  ATP content: 106 ± 2
C2C12 cells [2]; compound 10 nM
  ATP content: 111 ± 3
C2C12 cells [2]; compound 100 nM
  ATP content: 103 ± 4
[3]
  succinic acid dehydrogenase activity (in words): increased
[3]; compound 1 nM
  succinic acid dehydrogenase activity: 111 ± 3
[3]; compound 10 nM
  succinic acid dehydrogenase activity: 120 ± 4
[3]; compound 100 nM
  succinic acid dehydrogenase activity: 131 ± 7
[4]; 1 mg/kg oral
  average amount of ingestion: 3.6 ± 0.2 g/day
  body weight (g) change: 4.0 ± 1.5 g
  epididymal fat mass: 0.78 ± 0.11 g
  gastrocnemius muscle weight (g/100 g body weight): 0.360 ± 0.014 g/100 g body weight
  hepatocyte weight: 1.85 ± 0.30 g
  mesenteric fat mass: 0.95 ± 0.14 g
[4]; 1 mg/kg oral, Day 0
  body weight: 41.2 ± 1.8 g
  glycated hemoglobin (%): 4.4 ± 0.1%
  plasma adiponectin (μg/dL)): 18.3 ± 2.8 µg/dL
  plasma glucose: 168.4 ± 29.1 mg/dL
  plasma insulin: 5.3 ± 3.5 ng/mL
  plasma leptin (mg/dL): 61.4 ± 18.1
  plasma neutral fats: 69.8 ± 35.0 mg/dL
  plasma total cholesterol: 227.2 ± 21.2 mg/dL
[4]; 1 mg/kg oral, Day 14
  glycated hemoglobin (%): 4.2 ± 0.2%
  plasma adiponectin (μg/dL)): 14.9 ± 3.4 µg/dL
  plasma glucose: 157.5 ± 19.4 mg/dL
  plasma insulin: 7.8 ± 3.3 ng/mL
  plasma leptin (mg/dL): 86.9 ± 12.0
  plasma neutral fats: 68.8 ± 16.0 mg/dL
  plasma total cholesterol: 213.8 ± 13.0 mg/dL
[4]; 1 mg/kg oral, Day 28
  glycated hemoglobin (%): 4.0 ± 0.1%
  plasma adiponectin (μg/dL)): 12.2 ± 2.3 µg/dL
  plasma glucose: 149.7 ± 16.9 mg/dL
  plasma insulin: 12.3 ± 4.9 ng/mL
  plasma leptin (mg/dL): 96.1 ± 10.2
  plasma neutral fats: 62.1 ± 26.1 mg/dL
  plasma total cholesterol: 216.8 ± 20.7 mg/dL
[4]; 1 mg/kg oral, Day 37
  body weight: 45.6 ± 3.0 g
[4]; 3 mg/kg oral
  average amount of ingestion: 3.7 ± 0.2 g/day
  body weight (g) change: 2.3 ± 2.3 g
  epididymal fat mass: 0.77 ± 0.15 g
  gastrocnemius muscle weight (g/100 g body weight): 0.375 ± 0.020 g/100 g body weight
  hepatocyte weight: 1.74 ± 0.30 g
  mesenteric fat mass: 0.77 ± 0.24 g
[4]; 3 mg/kg oral, Day 0
  body weight: 41.1 ± 1.7 g
  glycated hemoglobin (%): 4.6 ± 0.1%
  plasma adiponectin (μg/dL)): 17.0 ± 2.9 µg/dL
  plasma glucose: 176.9 ± 30.1 mg/dL
  plasma insulin: 5.1 ± 2.3 ng/mL
  plasma leptin (mg/dL): 62.3 ± 10.9
  plasma neutral fats: 71.6 ± 28.8 mg/dL
  plasma total cholesterol: 231.9 ± 29.9 mg/dL
[4]; 3 mg/kg oral, Day 14
  glycated hemoglobin (%): 4.0 ± 0.3%
  plasma adiponectin (μg/dL)): 15.2 ± 3.0 µg/dL
  plasma glucose: 172.8 ± 32.3 mg/dL
  plasma insulin: 6.2 ± 3.0 ng/mL
  plasma leptin (mg/dL): 73.5 ± 12.6
  plasma neutral fats: 47.0 ± 9.2 mg/dL
  plasma total cholesterol: 192.8 ± 12.5 mg/dL
[4]; 3 mg/kg oral, Day 28
  glycated hemoglobin (%): 4.0 ± 0.2%
  plasma adiponectin (μg/dL)): 12.8 ± 0.8 µg/dL
  plasma glucose: 155.9 ± 12.7 mg/dL
  plasma insulin: 5.8 ± 1.4 ng/mL
  plasma leptin (mg/dL): 77.3 ± 16.3
  plasma neutral fats: 53.6 ± 35.6 mg/dL
  plasma total cholesterol: 194.1 ± 18.4 mg/dL
[4]; 3 mg/kg oral, Day 37
  body weight: 44.0 ± 2.4 g
[4]; obese mouse model fed with a high-fat diet
  body weight (in words): clear body weight decreasing action
